Laboratory results: patent publication US20230219965A1 (KSQ Therapeutics, Inc., priority 2020, published 2023)
Like-named read-outs stand apart in the source and are kept apart here.

Experiments:
[1] = target: USP1/UAF1 enzyme (Homo sapiens, UniProt O94782); assay: USP1/UAF1 deubiquitination assay (ubiquitin-rhodamine 110 substrate); type: biochemical; details: read-out: USP1 IC50 (Ub-Rho)
Summary of the method: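 Cleavage of 150 nM ubiquitin-rhodamine 110 by 0.05 nM USP1/UAF1 was followed as fluorescence (Ex480/Em540, kinetic, 30 min) in Tris-HCl pH 7.8 buffer with EDTA, BSA, DTT and Tween-20. Compounds, top 10 μM, were preincubated with enzyme 10 min; % inhibition against no-enzyme and DMSO wells gave four-parameter IC50s.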

[2] = ADME solubility determination in PBS at pH 2.0 and pH 7.4; type: physicochemical; details: phosphate buffered saline, 25 °C, thermodynamic from solid
Procedure: Certain Compounds of the Disclosure were assessed for ADME solubility at pH 2.0 and pH 7.4.
Stock solutions were prepared by adding each compound to DMSO at a concentration of 10 mM. Samples were prepared by adding 50 μL of each stock solution to separate vials. The vials were loaded onto a 96-well rack and dried. 500 μL of Phosphate Buffered Saline (PBS) pH 7.4 or PBS pH 2.0 were added into each vial. The vials were then shaken at 25° C. and 1,100 rpm for 24 hours.
After 24 hours, the vials were centrifuged at 3220 G and 25° C. for 30 minutes. The supernatant fluid was analyzed by LC-MS/MS against a standard of known concentration. The solubility of each sample was then calculated using the equation below: […]
where DF is the dilution factor.

[3] = Liver microsomal metabolic stability, rat liver microsomes (RLM); details: rat, liver microsomes, t1/2 (min) in RLM, 1 μM compound, 1 mg/mL microsomes, NADPH
[4] = Liver microsomal metabolic stability, human liver microsomes (HLM); details: human, liver microsomes
[5] = pH 2, aqueous buffer, PBS pH 2.0, 25° C., read-out: Solubility at pH 2.0
[6] = pH 7.4, aqueous buffer, PBS pH 7.4, 25° C., read-out: Solubility at pH 7.4

Sequence of USP1/UAF1 enzyme (O94782 whole entry): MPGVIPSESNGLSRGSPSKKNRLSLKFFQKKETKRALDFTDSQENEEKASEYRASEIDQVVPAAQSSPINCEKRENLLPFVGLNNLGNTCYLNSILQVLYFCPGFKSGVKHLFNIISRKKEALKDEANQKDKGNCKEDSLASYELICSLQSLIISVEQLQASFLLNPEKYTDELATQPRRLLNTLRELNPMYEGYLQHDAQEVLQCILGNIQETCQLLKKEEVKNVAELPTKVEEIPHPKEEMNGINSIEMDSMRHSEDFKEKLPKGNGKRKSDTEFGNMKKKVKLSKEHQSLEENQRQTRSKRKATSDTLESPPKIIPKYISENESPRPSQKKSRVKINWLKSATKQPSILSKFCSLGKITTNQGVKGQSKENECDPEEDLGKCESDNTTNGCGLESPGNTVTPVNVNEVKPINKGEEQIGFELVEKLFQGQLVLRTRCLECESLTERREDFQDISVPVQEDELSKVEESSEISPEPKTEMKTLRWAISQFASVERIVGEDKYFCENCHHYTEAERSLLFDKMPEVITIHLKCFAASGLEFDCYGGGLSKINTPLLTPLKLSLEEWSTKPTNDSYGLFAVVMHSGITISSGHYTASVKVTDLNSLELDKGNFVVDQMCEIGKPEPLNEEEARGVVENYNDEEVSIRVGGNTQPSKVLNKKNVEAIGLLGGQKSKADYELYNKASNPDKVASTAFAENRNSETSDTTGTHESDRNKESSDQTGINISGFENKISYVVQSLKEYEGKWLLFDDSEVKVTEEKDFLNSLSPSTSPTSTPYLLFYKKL
Sequence of USP1/UAF1 enzyme (Q8TAF3 whole entry partner): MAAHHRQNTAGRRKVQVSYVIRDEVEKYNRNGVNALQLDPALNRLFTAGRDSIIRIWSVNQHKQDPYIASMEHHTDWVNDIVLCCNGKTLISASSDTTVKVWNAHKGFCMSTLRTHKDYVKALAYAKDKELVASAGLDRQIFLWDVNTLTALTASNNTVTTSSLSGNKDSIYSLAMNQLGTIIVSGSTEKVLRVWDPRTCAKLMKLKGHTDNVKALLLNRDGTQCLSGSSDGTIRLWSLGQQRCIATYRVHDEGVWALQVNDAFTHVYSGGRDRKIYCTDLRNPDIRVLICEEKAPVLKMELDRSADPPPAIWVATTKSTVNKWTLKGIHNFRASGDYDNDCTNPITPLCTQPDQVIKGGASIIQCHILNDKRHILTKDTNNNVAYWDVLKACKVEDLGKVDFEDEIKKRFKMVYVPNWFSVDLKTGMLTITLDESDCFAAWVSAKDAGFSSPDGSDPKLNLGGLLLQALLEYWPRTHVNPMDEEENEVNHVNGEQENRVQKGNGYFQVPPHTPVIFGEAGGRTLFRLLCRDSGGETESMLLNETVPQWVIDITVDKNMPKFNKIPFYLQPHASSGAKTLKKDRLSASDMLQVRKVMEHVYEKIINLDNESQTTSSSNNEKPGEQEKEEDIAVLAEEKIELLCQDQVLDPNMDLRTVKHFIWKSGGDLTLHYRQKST

Row | Structure (SMILES) | IC50 [1] | also measured
1 | CCn1cc(C(F)(F)F)nc1-c1ccc(N[C@@H]2CCCn3nc(-c4c(Cl)cnn4[C@H](C)CF)cc32)cc1 (single isomer, unassigned) [Example 323] | < 0.1 µM | solubility at 24 h [2, 5]: < 10 µM; solubility at 24 h [2, 6]: < 10 µM; half-life at 1 μM [3]: > 25 min; half-life at 1 μM [4]: > 25 min
2 | CCn1cc(C(F)(F)F)nc1-c1ccc(N[C@@H]2CCCn3nc(-c4c(Cl)cnn4[C@@H](C)CF)cc32)cc1 (single isomer, unassigned) [Example 324] | < 0.1 µM | solubility at 24 h [2, 5]: < 10 µM; solubility at 24 h [2, 6]: < 10 µM; half-life at 1 μM [3]: > 25 min; half-life at 1 μM [4]: > 25 min
3 | COc1ncnc(C2CC2)c1-c1cc2n(n1)CCC(=O)N2Cc1ccc(-n2nc(C(F)(F)F)cc2C)cc1 [Example 4, 2-(4-cyclopropyl-6-methoxypyrimidin-5-yl)-4-(4-(5-methyl-3-(trifluoromethyl)-1H-pyrazol-1-yl)benzyl)-6,7-dihydropyrazolo[1,5-a]pyrimidin-5(4H)-one] | < 0.1 µM | solubility at 24 h [2, 5]: < 10 µM; solubility at 24 h [2, 6]: < 10 µM; half-life at 1 μM [3]: > 25 min; half-life at 1 μM [4]: > 25 min
4 | COCCOc1cc(CN2C(=O)CCn3nc(-c4c(Cl)cnn4C(C)C)nc32)ccc1-c1nc(C(F)(F)F)cn1C(C)C [Example 167] | 0.1 to 0.5 µM | solubility at 24 h [2, 5]: < 10 µM; solubility at 24 h [2, 6]: < 10 µM
5 | [2H]C([2H])([2H])C([2H])(n1cc(C(F)(F)F)nc1-c1ccc(CN2C(=O)CCn3nc(-c4c(OC(F)F)ncnc4C4CC4)nc32)cc1)C([2H])([2H])[2H] [Example 374, 2-(4-cyclopropyl-6-(difluoromethoxy)pyrimidin-5-yl)-4-(4-(1-(propan-2-yl-d7)-4-(trifluoromethyl)-1H-imidazol-2-yl)benzyl)-6,7-dihydro-[1,2,4]triazolo[1,5-a]pyrimidin-5(4H)-one] | < 0.1 µM | 
6 | [2H]C([2H])([2H])C([2H])([2H])n1cc(C(F)(F)F)nc1-c1ccc(CN2C(=O)CCn3nc(-c4c(OC(F)F)ncnc4C4CC4)nc32)cc1 [Example 375, 2-(4-cyclopropyl-6-(difluoromethoxy)pyrimidin-5-yl)-4-(4-(1-(ethyl-d5)-4-(trifluoromethyl)-1H-imidazol-2-yl)benzyl)-6,7-dihydro-[1,2,4]triazolo[1,5-a]pyrimidin-5(4H)-one] | < 0.1 µM | 
7 | CCn1cc(C(F)(F)F)nc1-c1ccc(CN2C(=O)CCn3nc(-c4c(OC)ncnc4OC(F)F)nc32)cc1 [Example 376, 2-(4-(difluoromethoxy)-6-methoxypyrimidin-5-yl)-4-(4-(1-ethyl-4-(trifluoromethyl)-1H-imidazol-2-yl)benzyl)-6,7-dihydro-[1,2,4]triazolo[1,5-a]pyrimidin-5(4H)-one] | < 0.1 µM | 
8 | Cn1cc(C(F)(F)F)nc1-c1ccc(CN2C(=O)CCn3nc(-c4c(OC(F)F)ncnc4C4CC4)nc32)cc1F [Example 377, 2-(4-cyclopropyl-6-(difluoromethoxy)pyrimidin-5-yl)-4-(3-fluoro-4-(1-methyl-4-(trifluoromethyl)-1H-imidazol-2-yl)benzyl)-6,7-dihydro-[1,2,4]triazolo[1,5-a]pyrimidin-5(4H)-one] | < 0.1 µM | 
9 | COc1ncnc(C2CC2)c1-c1nc2n(n1)CCC(=O)N2C(C)c1ccc(-c2nc(C(F)(F)F)cn2C)cc1 (stereo not drawn) [Example 378, 2-(4-cyclopropyl-6-methoxypyrimidin-5-yl)-4-(1-(4-(1-methyl-4-(trifluoromethyl)-1H-imidazol-2-yl)phenyl)ethyl)-6,7-dihydro-[1,2,4]triazolo[1,5-a]pyrimidin-5(4H)-one] | < 0.1 µM | 
10 | CCn1cc(C(F)(F)F)nc1-c1ccc(CN2C(=O)[C@@H](C)Cn3nc(-c4c(OC)ncnc4C4CC4)nc32)cc1 [Example 381, (S)-2-(4-cyclopropyl-6-methoxypyrimidin-5-yl)-4-(4-(1-ethyl-4-(trifluoromethyl)-1H-imidazol-2-yl)benzyl)-6-methyl-6,7-dihydro-[1,2,4]triazolo[1,5-a]pyrimidin-5(4H)-one] | < 0.1 µM | 
11 | CCn1cc(C(F)(F)F)nc1-c1ccc(CN2C(=O)[C@H](C)Cn3nc(-c4c(OC)ncnc4C4CC4)nc32)cc1 [Example 382, (R)-2-(4-cyclopropyl-6-methoxypyrimidin-5-yl)-4-(4-(1-ethyl-4-(trifluoromethyl)-1H-imidazol-2-yl)benzyl)-6-methyl-6,7-dihydro-[1,2,4]triazolo[1,5-a]pyrimidin-5(4H)-one] | < 0.1 µM | 
12 | COc1ncnc(C2CC2)c1-c1nc2n(n1)CC(C)C(=O)N2Cc1ccc(-c2nc(C(F)(F)F)cn2C(C)CF)cc1 (stereo not drawn) [Example 383, 2-(4-cyclopropyl-6-methoxypyrimidin-5-yl)-4-(4-(1-(1-fluoropropan-2-yl)-4-(trifluoromethyl)-1H-imidazol-2-yl)benzyl)-6-methyl-6,7-dihydro-[1,2,4]triazolo[1,5-a]pyrimidin-5(4H)-one] | 0.1 to 0.5 µM | 
13 | CCn1cc(C(F)(F)F)nc1-c1ccc(C(C)N2C(=O)C(C)Cn3nc(-c4c(OC)ncnc4C4CC4)nc32)cc1 (stereo not drawn) [Example 384, 2-(4-cyclopropyl-6-methoxypyrimidin-5-yl)-4-(1-(4-(1-ethyl-4-(trifluoromethyl)-1H-imidazol-2-yl)phenyl)ethyl)-6-methyl-6,7-dihydro-[1,2,4]triazolo[1,5-a]pyrimidin-5(4H)-one] | < 0.1 µM | 
14 | Cn1cc(C(F)(F)F)nc1-c1ccc(Cn2c(=O)ccn3nc(-c4c(OC(F)F)ncnc4C4CC4)nc23)cc1F [Example 385, 2-(4-cyclopropyl-6-(difluoromethoxy)pyrimidin-5-yl)-4-(3-fluoro-4-(1-methyl-4-(trifluoromethyl)-1H-imidazol-2-yl)benzyl)-[1,2,4]triazolo[1,5-a]pyrimidin-5(4H)-one] | < 0.1 µM | 
15 | COc1ncnc(C2CC2)c1-c1nc2n(Cc3ccc(-c4nc(C(F)(F)F)cn4C)c(F)c3)c(=O)ccn2n1 [Example 386, 2-(4-cyclopropyl-6-methoxypyrimidin-5-yl)-4-(3-fluoro-4-(1-methyl-4-(trifluoromethyl)-1H-imidazol-2-yl)benzyl)-[1,2,4]triazolo[1,5-a]pyrimidin-5(4H)-one] | < 0.1 µM | 
16 | COc1ncnc(C2CC2)c1-c1cc2n(n1)CCCC2Nc1ccc(-c2nc(C(F)(F)F)cn2CCF)cc1 (stereo not drawn) [Example 387, 2-(4-cyclopropyl-6-methoxypyrimidin-5-yl)-N-(4-(1-(2-fluoroethyl)-4-(trifluoromethyl)-1H-imidazol-2-yl)phenyl)-4,5,6,7-tetrahydropyrazolo[1,5-a]pyridin-4-amine] | < 0.1 µM | 
17 | COc1ncnc(C2CC2)c1-c1cc2n(n1)CCCC2Nc1ccc(-c2nc(C(F)(F)F)cn2C)c(F)c1 (stereo not drawn) [Example 388, 2-(4-cyclopropyl-6-methoxypyrimidin-5-yl)-N-(3-fluoro-4-(1-methyl-4-(trifluoromethyl)-1H-imidazol-2-yl)phenyl)-4,5,6,7-tetrahydropyrazolo[1,5-a]pyridin-4-amine] | < 0.1 µM | 
18 | [2H]C([2H])([2H])C([2H])([2H])n1cc(C(F)(F)F)nc1-c1ccc(NC2CCCn3nc(-c4c(OC)ncnc4C4CC4)cc32)cc1 (stereo not drawn) [Example 389, 2-(4-cyclopropyl-6-methoxypyrimidin-5-yl)-N-(4-(1-(ethyl-d5)-4-(trifluoromethyl)-1H-imidazol-2-yl)phenyl)-4,5,6,7-tetrahydropyrazolo[1,5-a]pyridin-4-amine] | < 0.1 µM | 
19 | CC(CF)n1cc(C(F)(F)F)nc1-c1ccc(NC2CCCn3nc(-c4c(Cl)cnn4C(C)C)cc32)cc1 (stereo not drawn) [Example 390, 2-(4-chloro-1-isopropyl-1H-pyrazol-5-yl)-N-(4-(1-(1-fluoropropan-2-yl)-4-(trifluoromethyl)-1H-imidazol-2-yl)phenyl)-4,5,6,7-tetrahydropyrazolo[1,5-a]pyridin-4-amine] | < 0.1 µM | 
20 | CCn1cc(C(F)(F)F)nc1-c1ccc(Cn2c(=O)c(C)cn3nc(-c4c(OC)ncnc4C4CC4)nc23)cc1 [Example 391, 2-(4-cyclopropyl-6-methoxypyrimidin-5-yl)-4-(4-(1-ethyl-4-(trifluoromethyl)-1H-imidazol-2-yl)benzyl)-6-methyl-[1,2,4]triazolo[1,5-α]pyrimidin-5(4H)-one] | < 0.1 µM | 
21 | CCn1cc(C(F)(F)F)nc1-c1ccc(Cn2c(=O)c(C)cn3nc(-c4c(OC(F)F)ncnc4C4CC4)nc23)cc1 [Example 392, 2-(4-cyclopropyl-6-(difluoromethoxy)pyrimidin-5-yl)-4-(4-(1-ethyl-4-(trifluoromethyl)-1H-imidazol-2-yl)benzyl)-6-methyl-[1,2,4]triazolo[1,5-a]pyrimidin-5(4H)-one] | < 0.1 µM | 
22 | COc1ncnc(C2CC2)c1-c1cc2n(n1)CCC[C@@H]2Oc1ccc(-c2nc(C(F)(F)F)cn2C(C)CF)cc1 (stereo partly drawn) [Example 393, (4S)-2-(4-cyclopropyl-6-methoxypyrimidin-5-yl)-4-(4-(1-(1-fluoropropan-2-yl)-4-(trifluoromethyl)-1H-imidazol-2-yl)phenoxy)-4,5,6,7-tetrahydropyrazolo[1,5-α]pyridine] | < 0.1 µM | 
